Results reported in US9592186B2, “Topical compositions and methods for skin lightening” (Avon Products, Inc., priority 2014, dated 2017).

Test system: Human epidermal melanocytes from dark-pigmented skin
Experiment: Melanin absorbance (pigmentation) in cultured human epidermal melanocytes after 8 days of incubation
Type: cell-based
Details: for effect on pigmentation (in words): summary of Table 1; for % Pigmentation (percent change of melanin absorbance relative to vehicle control): 8 days incubation, absorption at 405 nm
Description: The Compound of Formula (II) was examined for its ability to reduce pigmentation in vitro in human melanocytes. Human epidermal melanocytes from dark-pigmented skin were seeded in 6-well dishes and grown using commercially available Medium 254, a sterile, liquid medium prepared with 200 μM calcium chloride for the culture of human epidermal melanocytes, supplemented with 1% Penicillin/Streptomycin and 1% Human Melanocyte Growth Supplement. Corresponding controls were maintained without histamine, Diphenylhydramine HCl and Compound II. Four replicates were tested for each combination. After 8 days of incubation, melanin was collected and processed by washing the wells with IX phosphate-buffered saline (PBS), followed by addition of 200 μL of 2M NaOH to three of the four replicates, which are then scraped, pooled and boiled at 80° C. for an hour. Melanin absorption was then measured at 405 nm using a spectrophotometer.
A larger (positive or negative) percent change indicates a larger increase or reduction in melanin.

| SMILES | effect on pigmentation (in words) (5 μM) | effect on pigmentation (in words) (at both concentrations tested (0.001% and 0.0001%)) | % Pigmentation (percent change of melanin absorbance relative to vehicle control) (concentration 0.0001%) [%] | % Pigmentation (percent change of melanin absorbance relative to vehicle control) (concentration 0.001%) [%] |
| --- | --- | --- | --- | --- |
| NCCc1c[nH]cn1 [Histamine, reference compound] | significant increase in pigmentation |  |  |  |
| CC(=O)c1ccc(OCC(=O)NCC(c2ccco2)N2CCCCC2)cc1 (stereo not shown) [Compound (II)] |  | effective to reduce pigmentation | −10.40 | −40.83 |
